Source: PMC5902452, “In silico optimization of a guava antimicrobial peptide enables combinatorial exploration for peptide design” (Nature Communications, 2018)
Peptide text beside a SMILES is read from it.

Experiments:
[1] = test system: Klebsiella pneumoniae ATCC 13883; assay type: cell-based; conditions: ATCC 13883, 18 h
Source text: (§2) Lysogeny Broth (LB) was used for cultures of Acinetobacter baumannii ATCC 19606, Enterococcus faecalis ATCC 29212, Escherichia coli ATCC 25922, Klebsiella pneumoniae ATCC 13883, Pseudomonas aeruginosa ATCC 27853, and S. aureus ATCC 25923. Brain Heart Infusion (BHI) broth was used for cultures of Listeria ivanovii Li 4pVS2 and Streptococcus pyogenes ATCC 19615. Yeast peptone dextrose (YPD) medium was used for Candida species (C. albicans ATCC 90028 and C. parapsilosis ATCC 22019). MH (Mueller Hinton) broth was used for suspend centrifuged culture of bacteria and yeasts in logarithmic phase to an A630 of 0.01 (~10^6 cfu mL^−1), except for S. pyogenes, L. ivanovii, and E. faecalis that were suspended in their respective growth medium. […] A microplate reader (UVM 340, Asys Hitech) was used to monitor the antimicrobial susceptibility by measuring the change in A630. […] Each experiment was performed in triplicate with positive (0.7% formaldehyde) and negative (without peptide) inhibition controls.

[2] = test system: Streptococcus pyogenes ATCC 19615; assay type: cell-based; conditions: ATCC 19615, 18 h
Source text: as §2

[3] = test system: Acinetobacter baumannii ATCC 19606; assay: Antimicrobial activity, MIC by twofold serial dilution; assay type: cell-based; conditions: purified peptide; MH broth, 18 h, 37 °C, A630; average of three independent experiments in triplicate
Source text: as §2

[4] = test system: methicillin-resistant S. aureus (MRSA); assay: Antibiofilm assay; assay type: cell-based, Staphylococcus aureus
Method: (§1) Overnight cultures of microorganisms [E. coli 0157, methicillin-resistant S. aureus (MRSA), K. pneumoniae 1825971, or C. albicans clinical isolate obtained from a blood culture maintained at LACEN (Laboratório Central de Saúde do Distrito Federal, a Brazilian reference laboratory for clinical isolates in Brasília, Brazil)] grown in LB broth (BD Difco) were diluted 1 in 100 in LB and Todd-Hewitt broth (BD Difco) or BM2 minimal medium [62 mM potassium phosphate buffer, pH 7.0, 7 mM (NH4)2SO4, 2 mM MgSO4, 10 μM FeSO4, 0.5% glucose], and 100 μL per well was added into 96-well round-bottom microplates. Absorbance at 600 nm was used to assess the planktonic cell growth. Non-adherent planktonic cells were removed from microtiter wells and washed twice with deionized water. Adherent cells were stained with 0.1% crystal violet for 20 min. The microplate wells were washed twice with deionized water, air dried, and solubilized with 110 μL of 70% ethanol. […] Biofilm formation was assessed by measuring the absorbance at 600 nm using a microplate reader (Bio-Tek Instruments, Inc., USA). The microdilution method for cationic peptides was used to determine the MIC for planktonic cells. Three biological replicates were performed for each experiment involving eight technical replicates.

human erythrocytes = assay: Hemolytic assay; conditions: SPOT-synthesized crude peptides; human red blood cells in NaCl 0.85%, 1 h, 37 °C; hemoglobin release at 546 nm; highest concentration 200 μg mL−1; 100% of hemolysis was not observed
Method: Fresh human venous blood was collected from volunteers in Vacutainer collection tubes containing sodium heparin as an anticoagulant (BD Biosciences, Franklin Lakes, NJ). The blood was centrifuged applying 151 × g force (1500 rpm) and the serum was removed and the blood cells were replaced and washed three times with the same volume of sterile NaCl 0.85% solution. Concentrated red blood cells were diluted tenfold in NaCl 0.85% solution and then exposed at twofold dilutions of peptides for 1 h at 37 °C, at identical concentrations used for antimicrobial assays, in the ratio of 1:1 (v/v), achieving a final volume of 100 μL. The assay was carried out in 96-well polypropylene microtiter plates. The positive control wells contained 1% of Triton X-100, representing 100% cell lysis, and negative control wells contained sterile saline. Hemoglobin release was monitored chromogenically at 546 nm using a microplate reader.

[5] = test system: Candida albicans ATCC 90028; assay type: cell-based; conditions: ATCC 90028, 18 h
Source text: as §2

E. coli ATCC 25922 [6] = assay: SYTOX green uptake assay (membrane permeabilization); assay type: cell-based, Escherichia coli; conditions: 12.5 µM (twofold above the MIC), 1 h, 37 °C, PBS
Method: SG is impermeant to live cells and when the cell membrane is damaged, this dye penetrates into the cell and binds to intracellular DNA, due to its high-affinity to nucleic acids, leading to an increase in fluorescence. Exponentially growing bacteria (6 × 10^5 cfu mL^−1) were resuspended in PBS after centrifugation (1000 × g, 10 min, 4 °C) and washing steps. About 792 μL of the bacterial suspension was pre-incubated with 8 μL of 100 μM SG during 30 min at 37 °C in the dark. […] Results correspond to a representative experiment with negative (PBS) and positive (melittin) controls. Three independent experiments were performed.

E. coli 0157 = assay: Antibiofilm assay; assay type: cell-based, Escherichia coli
Method: as §1

[7] = test system: Staphylococcus aureus ATCC 25923; assay type: cell-based; conditions: ATCC 25923, 18 h
Source text: as §2

[8] = test system: Candida parapsilosis ATCC 22019; assay type: cell-based; conditions: ATCC 22019, 18 h
Source text: as §2

HEK-293 cells = assay: Cytotoxicity, MTT-based microassay; assay type: cell-based, human; conditions: purified peptide, HEK-293, 72 h, 37 °C, 12.5–200 µM, mean of three independent experiments in triplicate, read-out: Active concentration (inhibitory concentration 50, IC50)
Method: HEK-293 cells were cultured in DMEM medium, and incubated at 37 °C in a humidified atmosphere of 5% CO2. Cell viability was quantified after peptide incubation using a methylthiazolyldiphenyl-tetrazolium bromide (MTT)-based microassay. […] Then, 10 µL of MTT (5 mg mL^−1 in PBS) was added to each well and the cells were further incubated for 4 h in the dark. The formazan crystals formed by mitochondrial reductases in intact cells are insoluble in aqueous solutions and precipitate. Formazan crystals were dissolved using a solubilization solution (40% dimethylformamide in 2% glacial acetic acid, 16% sodium dodecyl sulfate, pH 4.7) followed by 1 h incubation at 37 °C under shaking (150 rpm). Finally, the absorbance of the resuspended formazan was measured at 570 nm. Data were analyzed with GraphPad Prism® 5.0 software to determine the inhibitory concentration 50 (IC50), which corresponds to the peptide concentration producing 50% cell death. Results were expressed as the mean of three independent experiments performed in triplicate.

E. coli ATCC 25922 [9] = assay type: cell-based, Escherichia coli
Method: Exponentially growing bacteria in LB were harvested by centrifugation, washed three times in PBS and suspended in the same buffer to a final concentration of 10^7 cfu mL^−1. One hundred microliters of this bacterial suspension was incubated with a dose of peptide corresponding to twofold the MIC. Then, aliquots of 10 µL were withdrawn at different times, diluted in LB, and spread onto LB agar plates. The cfu were counted after overnight incubation at 37 °C.

CC[C@H](C)[C@H](NC(=O)[C@H](CCCNC(=N)N)NC(=O)[C@H](Cc1ccc(O)cc1)NC(=O)CNC(=O)[C@H](Cc1ccc(O)cc1)NC(=O)[C@H](CCCNC(=N)N)NC(=O)[C@H](CC(C)C)NC(=O)[C@H](C)NC(=O)[C@H](CCC(N)=O)NC(=O)[C@H](CCC(=O)O)NC(=O)[C@@H](NC(=O)[C@H](CCC(N)=O)NC(=O)[C@H](CCCNC(=N)N)NC(=O)[C@H](CCSC)NC(=O)[C@H](Cc1ccc(O)cc1)NC(=O)[C@H](CCC(N)=O)NC(=O)[C@@H](N)CCCNC(=N)N)[C@@H](C)CC)C(=O)N[C@@H](CO)C(=O)N[C@@H](CCCNC(=N)N)C(=O)N[C@@H](CCCNC(=N)N)C(N)=O [Guavanin 2] (H-RQYMRQIEQALRYGYRISRR-NH2)
Active concentration (MIC) [1]: 80 µM | Active concentration (MIC) [2]: 50 µM | Active concentration (MIC) [3]: 6.25 µM | antibiofilm activity [4]: only able to reduce C. albicans biofilms | Hemolysis (human erythrocytes): > 200 µg/mL | Active concentration (MIC) [5]: >200 µM | SYTOX Green influx (membrane permeabilization) (E. coli ATCC 25922 [6]): only a slow and very small amount of dye influx | antibiofilm activity (E. coli 0157): only able to reduce C. albicans biofilms | Active concentration (MIC) [7]: 100 µM | Active concentration (MIC) [8]: ≥50 µM | IC50 (HEK-293 cells): > 200 µM | colony-forming units remaining (from 10^7) (E. coli ATCC 25922 [9]; 12.5 µM (twofold above the MIC), 120 min): ~ 10^5 colony-forming units | killing speed relative to [I^5, R^8] mastoparan (E. coli ATCC 25922 [9]; time–kill, E. coli): eightfold slower
